Experimental data: ChEMBL document CHEMBL5653634, “The effect of the PKC inhibitor GF109203X on the release of Ca2+ from internal stores and Ca2+ entry in DDT1 MF-2 cells” (1996)
Active and inactive are the calls of the source. No cut-off for these calls is given here.

Key:
[1] = Inhibition of PKC in golden hamster DDT1-MF2 cells by measuring calcium 2+ uptake at 1 uM preincubated for 45 mins followed by extracellular calcium 2+ addition measured after 5 mins by liquid scintillation counting analysis (reference value: 100 +/- 6 %); parameters: species or system Mesocricetus auratus; scale not given: the % may be the effect or the level left; settings: time 50 min
DDT1-MF2 [2] = assay: Inhibition of PKC in golden hamster DDT1-MF2 cells assessed as decrease in histamine-induced calcium release by measuring cytoplasmic calcium concentration incubated for 45 mins followed by histamine and LaCl3 addition; assay type: cell-based; settings: Mesocricetus auratus
[3] = Inhibition of PKC in golden hamster DDT1-MF2 cells assessed as decrease in thapsigargin-induced calcium release by measuring basal cytoplasmic calcium concentration at 5 uM incubated for 45 mins followed by thapsigargin and LaCl3 addition measured after 5 mins; parameters: species or system Mesocricetus auratus; settings: time 50 min
[4] = Inhibition of PKC in golden hamster DDT1-MF2 cells by measuring calcium 2+ uptake at 5 uM preincubated for 45 mins followed by extracellular calcium 2+ addition measured after 5 mins by liquid scintillation counting analysis (reference value: 100 +/- 6 %); parameters: species or system Mesocricetus auratus; scale not given: the % may be the effect or the level left; settings: time 50 min
[5] = Inhibition of PKC in golden hamster DDT1-MF2 cells assessed as inhibition of histamine-induced calcium response by measuring maximal cytoplasmic calcium concentration at 5 uM preincubated for 45 mins in presence of extracellular calcium 2+ followed by histamine stimulation; parameters: species or system Mesocricetus auratus; settings: 0.75 h
[6] = Inhibition of PKC in golden hamster DDT1-MF2 cells by measuring calcium 2+ uptake at 5 uM preincubated for 45 mins followed by extracellular calcium 2+ and histamine addition measured after 5 mins by liquid scintillation counting analysis (reference value: 100 +/- 6 %); parameters: species or system Mesocricetus auratus; scale not given: the % may be the effect or the level left; settings: time 50 min
[7] = Inhibition of PKC in golden hamster DDT1-MF2 cells assessed as decrease in Ins(1,4,5)P3-induced calcium 2+ efflux at 5 uM incubated for 14 mins by liquid scintillation counting analysis relative to control; settings: Mesocricetus auratus, DDT1-MF2, 14 min
[8] = Inhibition of PKC in golden hamster DDT1-MF2 cells by measuring cytoplasmic calcium concentration at 5 uM incubated for 10 mins in presence of LaCl3; parameters: species or system Mesocricetus auratus
DDT1-MF2 [9] = assay: Inhibition of PKC in golden hamster DDT1-MF2 cells assessed as increase in inositol 1,4,5-trisphosphate formation at 5 uM incubated for 45 mins by liquid scintillation counting analysis; assay type: cell-based; settings: Mesocricetus auratus
[10] = Inhibition of PKC in golden hamster DDT1-MF2 cells assessed as decrease in histamine-induced calcium release by measuring cytoplasmic calcium concentration at 5 uM incubated for 45 mins in presence of LaCl3; parameters: species or system Mesocricetus auratus; settings: 0.75 h
[11] = Inhibition of PKC in golden hamster DDT1-MF2 cells assessed as inhibition of histamine-induced calcium response by measuring cytoplasmic calcium concentration at 5 uM preincubated for 45 mins in presence of extracellular calcium 2+ followed by histamine stimulation measured after 5 mins; parameters: species or system Mesocricetus auratus; settings: time 50 min
[12] = Inhibition of PKC in golden hamster DDT1-MF2 cells by measuring calcium 2+ uptake at 5 uM preincubated for 45 mins followed by extracellular calcium 2+ and thapsigargin addition measured after 5 mins by liquid scintillation counting analysis (reference value: 100 +/- 6 %); parameters: species or system Mesocricetus auratus; scale not given: the % may be the effect or the level left; settings: time 50 min
DDT1-MF2 [13] = assay: Inhibition of PKC in golden hamster DDT1-MF2 cells assessed as decrease in histamine-induced inositol 1,4,5-trisphosphate formation at 5 uM incubated for 45 mins followed by histamine stimulation by liquid scintillation counting analysis; assay type: cell-based; settings: Mesocricetus auratus
[14] = Inhibition of PKC in golden hamster DDT1-MF2 cells assessed as inhibition of histamine-induced calcium response by measuring cytoplasmic calcium concentration at 5 uM preincubated for 45 mins in absence of extracellular calcium 2+ followed by histamine stimulation; parameters: species or system Mesocricetus auratus; settings: 0.75 h
[15] = Inhibition of PKC in golden hamster DDT1-MF2 cells assessed as decrease in thapsigargin-induced calcium release by measuring cytoplasmic calcium concentration at 5 uM incubated for 45 mins followed by thapsigargin and LaCl3 addition measured after 5 mins; parameters: species or system Mesocricetus auratus; settings: time 50 min
DDT1-MF2 [16] = assay: Inhibition of PKC in golden hamster DDT1-MF2 cells assessed as decrease in thapsigargin-induced calcium release by measuring cytoplasmic calcium concentration at 5 uM incubated for 45 mins followed by thapsigargin and LaCl3 addition; assay type: cell-based; settings: Mesocricetus auratus
[17] = Inhibition of PKC in golden hamster DDT1-MF2 cells assessed as decrease in calcium 2+ efflux at 5 uM incubated for 10 mins by liquid scintillation counting analysis relative to control; settings: Mesocricetus auratus, DDT1-MF2, 10 min
[18] = Inhibition of PKC in golden hamster DDT1-MF2 cells by measuring basal cytoplasmic calcium concentration at 5 uM incubated for 45 mins in absence of extracellular calcium 2+; parameters: species or system Mesocricetus auratus; settings: 0.75 h
[19] = Inhibition of PKC in golden hamster DDT1-MF2 cells assessed as decrease in thapsigargin-induced calcium release by measuring cytoplasmic calcium concentration at 5 uM incubated for 45 mins followed by thapsigargin, PMA and LaCl3 addition measured after 48 hrs; parameters: species or system Mesocricetus auratus; settings: time 2925 min, 48.75 h
[20] = Inhibition of PKC in golden hamster DDT1-MF2 cells by measuring cytoplasmic calcium concentration at 5 uM incubated for 10 mins; parameters: species or system Mesocricetus auratus
[21] = Inhibition of PKC in golden hamster DDT1-MF2 cells by measuring basal cytoplasmic calcium concentration at 5 uM incubated for 45 mins in presence of extracellular calcium 2+; parameters: species or system Mesocricetus auratus; settings: 0.75 h
DDT1-MF2 [22] = assay: Inhibition of PKC in golden hamster DDT1-MF2 cells assessed as decrease in histamine-induced inositol 1,4,5-trisphosphate formation at 5 uM incubated for 45 mins in presence of PMA followed by histamine stimulation by liquid scintillation counting analysis; assay type: cell-based; settings: Mesocricetus auratus
[23] = Inhibition of PKC in golden hamster DDT1-MF2 cells assessed as decrease in histamine-induced inositol 1,4,5-trisphosphate formation by measuring inositol 1,4,5-trisphosphate level measured per 10^6 cells at 1 uM incubated for 48 hrs followed by histamine addition; parameters: species or system Mesocricetus auratus
[24] = Inhibition of PKC in golden hamster DDT1-MF2 cells by measuring basal cytoplasmic calcium concentration at 0.5 uM incubated for 5 mins in absence of extracellular calcium 2+; parameters: species or system Mesocricetus auratus
[25] = Inhibition of PKC in golden hamster DDT1-MF2 cells by measuring basal cytoplasmic calcium concentration at 0.5 uM incubated for 5 mins in presence of extracellular calcium 2+; parameters: species or system Mesocricetus auratus
DDT1-MF2 [26] = assay: Inhibition of PKC in golden hamster DDT1-MF2 cells assessed as decrease in histamine-induced inositol 1,4,5-trisphosphate formation at 1 uM incubated for 5 mins followed by histamine stimulation by liquid scintillation counting analysis; assay type: cell-based; settings: Mesocricetus auratus
[27] = Inhibition of PKC in golden hamster DDT1-MF2 cells assessed as inhibition of histamine-induced calcium response by measuring cytoplasmic calcium concentration at 0.5 uM preincubated for 5 mins in absence of extracellular calcium 2+ followed by histamine stimulation; parameters: species or system Mesocricetus auratus
[28] = Inhibition of PKC in golden hamster DDT1-MF2 cells assessed as inhibition of histamine-induced calcium response by measuring maximal cytoplasmic calcium concentration at 0.5 uM preincubated for 5 mins in presence of extracellular calcium 2+ followed by histamine stimulation measured after 5 mins; parameters: species or system Mesocricetus auratus; settings: time 10 min
[29] = Inhibition of PKC in golden hamster DDT1-MF2 cells by measuring inositol 1,4,5-trisphosphate level measured per 10^6 cells at 1 uM incubated for 48 hrs; parameters: species or system Mesocricetus auratus
[30] = Inhibition of PKC in golden hamster DDT1-MF2 cells assessed as inhibition of histamine-induced calcium response by measuring maximal cytoplasmic calcium concentration at 0.5 uM preincubated for 5 mins in presence of extracellular calcium 2+ followed by histamine stimulation; parameters: species or system Mesocricetus auratus
[31] = Inhibition of PKC in golden hamster DDT1-MF2 cells by measuring calcium 2+ uptake at 10 uM preincubated for 45 mins followed by extracellular calcium 2+ addition measured after 5 mins by liquid scintillation counting analysis (reference value: 100 +/- 6 %); parameters: species or system Mesocricetus auratus; scale not given: the % may be the effect or the level left; settings: time 50 min

Compound: C/C=C(/C)C(=O)O[C@H]1C(C)=C2[C@H]([C@@H]1OC(=O)CCCCCCC)[C@@](C)(OC(C)=O)C[C@H](OC(=O)CCC)[C@@]1(O)[C@H]2OC(=O)[C@@]1(C)O [THAPSIGARGIN]
- Activity [1]: 221%

Compound: CN(C)CCCn1cc(C2=C(c3c[nH]c4ccccc34)C(=O)NC2=O)c2ccccc21 [GF-109203]
- inhibition (DDT1-MF2 [2]): Dose-Dependent Effect
- Activity [3]: 105 nM
- Activity [4]: 167%
- Activity [5]: 63 nM
- Activity [6]: 155%
- inhibition at 5 µM [7]: 58%
- Activity [8]: 7 nM
- inhibition (DDT1-MF2 [9]): Active
- Activity [10]: 38 nM
- Activity [11]: 42 nM
- Activity [12]: 238%
- inhibition (DDT1-MF2 [13]): inactive
- Activity [14]: 40 nM
- Activity [15]: 68 nM
- inhibition (DDT1-MF2 [16]): Active
- inhibition at 5 µM [17]: 93%
- Activity [18]: 82 nM
- Activity [19]: 73 nM
- Activity [20]: 9 nM
- Activity [21]: 102 nM
- inhibition (DDT1-MF2 [22]): inactive

Compound: CCCCCCCCCCCCCC(=O)O[C@@H]1[C@@H](C)[C@@]2(O)[C@@H](C=C(CO)C[C@]3(O)C(=O)C(C)=C[C@@H]23)[C@@H]2C(C)(C)[C@]12OC(C)=O [PHORBOL MYRISTATE ACETATE]
- Activity [23]: 11.5 pmol
- Activity [24]: 80 nM
- Activity [25]: 129 nM
- inhibition (DDT1-MF2 [26]): Active
- Activity [27]: 53 nM
- Activity [28]: 0 nM
- Activity [29]: 11.6 pmol
- Activity [30]: 50 nM

Compound: Cn1cc(C2=C(c3cn(CCCSC(=N)N)c4ccccc34)C(=O)NC2=O)c2ccccc21 [BISINDOLYLMALEIMIDE IX]
- Activity [31]: 135%
